Data reported in patent US11673898B2, “Substituted inhibitors of menin-MLL and methods of use” (Kura Oncology, Inc., priority 2016, dated 2023).

Target: T1, Menin MLL 4-43 (Homo sapiens, UniProt O00255)
T1 sequence (O00255 1-610): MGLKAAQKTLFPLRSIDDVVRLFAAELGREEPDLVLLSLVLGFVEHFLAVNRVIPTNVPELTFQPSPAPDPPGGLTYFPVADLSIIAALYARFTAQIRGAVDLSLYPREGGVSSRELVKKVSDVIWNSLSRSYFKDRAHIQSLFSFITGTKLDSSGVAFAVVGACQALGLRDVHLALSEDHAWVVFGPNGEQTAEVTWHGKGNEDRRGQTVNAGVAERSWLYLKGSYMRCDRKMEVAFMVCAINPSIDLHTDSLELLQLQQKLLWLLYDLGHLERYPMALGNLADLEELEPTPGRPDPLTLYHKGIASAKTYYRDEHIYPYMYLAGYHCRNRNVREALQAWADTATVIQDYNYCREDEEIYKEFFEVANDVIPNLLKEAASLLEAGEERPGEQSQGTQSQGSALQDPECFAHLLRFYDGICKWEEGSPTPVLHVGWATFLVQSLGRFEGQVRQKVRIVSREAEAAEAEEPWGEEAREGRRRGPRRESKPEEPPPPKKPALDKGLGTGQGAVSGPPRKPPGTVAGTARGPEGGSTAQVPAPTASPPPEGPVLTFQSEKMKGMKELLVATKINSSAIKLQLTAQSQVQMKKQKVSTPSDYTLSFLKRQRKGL
Assay: Fluorescence polarization (FP) competition assay of the menin-MLL interaction
Assay type: binding
Details: fluorescence polarization assay; read-out: Menin MLL 4-43 IC50

| IC50 | Compound |
| --- | --- |
| 0.05 to 0.25 µM | Cc1c(CN2CCC(Nc3ncnc4sc(CC(F)(F)F)cc34)CC2)ccc2c1cc(C#N)n2C[C@H](C)N1CCN(S(=O)(=O)N2CCC2)CC1 [Compound 121] |
| 0.05 to 0.25 µM | Cc1c(CN2CCC(Nc3ncnc4sc(CC(F)(F)F)cc34)CC2)ccc2c1cc(C#N)n2C[C@H](C)N1CCN(C(=O)CC(F)(F)F)CC1 [Compound 122] |
| < 0.05 µM | COCCNS(=O)(=O)N1CCN([C@@H](C)Cn2c(C#N)cc3c(C)c(CN4CCC(Nc5ncnc6sc(CC(F)(F)F)cc56)CC4)ccc32)CC1 [Compound 123] |
| 0.05 to 0.25 µM | Cc1c(CN2CCC(Nc3ncnc4sc(CC(F)(F)F)cc34)CC2)ccc2c1cc(C#N)n2CC(C)N1C[C@@H](C)N(S(=O)(=O)CF)[C@H](C)C1 (stereo partly drawn) [Compound 124] |
| 0.05 to 0.25 µM | Cc1c(CN2CCC(Nc3ncnc4sc(CC(F)(F)F)cc34)CC2)ccc2c1cc(C#N)n2C[C@H](C)N1CCN(S(=O)(=O)NCC(F)F)CC1 [Compound 125] |
| 0.05 to 0.25 µM | Cc1c(CN2CCC(Nc3ncnc4sc(CC(F)(F)F)cc34)CC2)ccc2c1cc(C#N)n2C[C@H](C)N1CCN(S(=O)(=O)CC(F)(F)F)CC1 [Compound 126] |
| 0.05 to 0.25 µM | Cc1c(CN2CCC(Nc3ncnc4sc(CC(F)(F)F)cc34)CC2)ccc2c1cc(C#N)n2C[C@H](C)N1CCN(S(=O)(=O)C2CCC2)CC1 [Compound 127] |
| 0.05 to 0.25 µM | CNS(=O)(=O)C1CCN(C(C)Cn2c(C#N)cc3c(C)c(CN4CCC(Nc5ncnc6sc(CC(F)(F)F)cc56)CC4)ccc32)CC1 (stereo not drawn) [Compound 128] |
| < 0.05 µM | Cc1c(CN2CCC(Nc3ncnc4sc(CC(F)(F)F)cc34)CC2)ccc2c1cc(C#N)n2C[C@H](C)N1CCN(S(=O)(=O)NCCF)CC1 [Compound 129] |
| 0.05 to 0.25 µM | Cc1c(CN2CCC(Nc3ncnc4sc(CC(F)(F)F)cc34)CC2)ccc2c1cc(C#N)n2C[C@H](C)N1CCN(S(=O)(=O)NCC(F)(F)F)CC1 [Compound 130] |
| < 0.05 µM | Cc1c(CN2CCC(Nc3ncnc4sc(CC(F)(F)F)cc34)CC2)ccc2c1cc(C#N)n2C[C@H](C)N1CCN(S(=O)(=O)NCCO)CC1 [Compound 131] |
| 0.05 to 0.25 µM | COCC(=O)N1CCN([C@@H](C)Cn2c(C#N)cc3c(C)c(CN4CCC(Nc5ncnc6sc(CC(F)(F)F)cc56)CC4)ccc32)CC1 [Compound 133] |
| < 0.05 µM | Cc1c(CN2CCC(Nc3nc(N)nc4sc(CC(F)(F)F)cc34)CC2)ccc2c1cc(C#N)n2C[C@H](C)N1CCN(C=O)CC1 [Compound 134] |
| < 0.05 µM | Cc1nc(NC2CCN(Cc3ccc4c(cc(C#N)n4C[C@H](C)N4CCN(C=O)CC4)c3C)CC2)c2cc(CC(F)(F)F)sc2n1 [Compound 136] |
| 0.05 to 0.25 µM | Cc1nc(NC2CCN(Cc3ccc4c(cc(C#N)n4C[C@H](C)N4CCN(S(=O)(=O)CF)CC4)c3C)CC2)c2cc(CC(F)(F)F)sc2n1 [Compound 137] |
| 0.05 to 0.25 µM | Cc1c(CN2CCC(Nc3ncnc4sc(CC(F)(F)F)cc34)CC2)ccc2c1cc(C#N)n2C[C@H](C)N1CCN(S(=O)(=O)N2CC2)CC1 [Compound 140] |
| < 0.05 µM | CCCNS(=O)(=O)N1CCN([C@@H](C)Cn2c(C#N)cc3c(C)c(CN4CCC(Nc5ncnc6sc(CC(F)(F)F)cc56)CC4)ccc32)CC1 [Compound 141] |
| 0.05 to 0.25 µM | CCCCNS(=O)(=O)N1CCN([C@@H](C)Cn2c(C#N)cc3c(C)c(CN4CCC(Nc5ncnc6sc(CC(F)(F)F)cc56)CC4)ccc32)CC1 [Compound 142] |
| 0.05 to 0.25 µM | Cc1c(CN2CCC(Nc3ncnc4sc(CC(F)(F)F)cc34)CC2)ccc2c1cc(C#N)n2C[C@H](C)N1CCN(C2=NCCO2)CC1 [Compound 143] |
| 0.05 to 0.25 µM | Cc1c(CN2CCC(Nc3ncnc4sc(CC(F)(F)F)cc34)CC2)ccc2c1cc(C#N)n2C[C@H](C)N1CCN(S(=O)(=O)C(F)F)CC1 [Compound 144] |
| 0.05 to 0.25 µM | Cc1c(CN2CCC(Nc3ncnc4sc(CC(F)(F)F)cc34)CC2)ccc2c1cc(C#N)n2C[C@H](C)N1CCN(S(=O)(=O)CF)[C@H](C)C1 [Compound 145] |
| 0.05 to 0.25 µM | Cc1nc(NC2CCN(Cc3ccc4c(cc(C#N)n4C[C@H](C)N4CCN(S(=O)(=O)C5CC5)CC4)c3C)CC2)c2cc(CC(F)(F)F)sc2n1 [Compound 146] |
| < 0.05 µM | Cc1c(CN2CCC(Nc3nc(N)nc4sc(CC(F)(F)F)cc34)CC2)ccc2c1cc(C#N)n2C[C@H](C)N1CCN(S(=O)(=O)C2CC2)CC1 [Compound 147] |
| < 0.05 µM | Cc1c(CN2CCC(Nc3ncnc4sc(CC(F)(F)F)cc34)CC2)ccc2c1cc(C#N)n2C[C@H](C)N1CCNCC1 [Compound 148] |
| < 0.05 µM | Cc1c(CN2CCC(Nc3nc(N)nc4sc(CC(F)(F)F)cc34)CC2)ccc2c1cc(C#N)n2C[C@H](C)N1CCN(S(=O)(=O)CF)CC1 [Compound 149] |
| 0.05 to 0.25 µM | Cc1c(CN2CCC(Nc3ncnc4sc(CC(F)(F)F)cc34)CC2)ccc2c1cc(C#N)n2C[C@H](C)N1CCN(P(C)(C)=O)CC1 [Compound 150] |
| 0.05 to 0.25 µM | Cc1c(CN2CCC(Nc3ncnc4sc(CC(F)(F)F)cc34)CC2)ccc2c1cc(C#N)n2C[C@H](C)N1C[C@@H](C)N(S(=O)(=O)CF)[C@@H](C)C1 [Compound 152] |

More lines, now with the values behind:

| Compound | IC50 |
| --- | --- |
| CNC(=O)N1CCN([C@@H](C)Cn2c(C#N)cc3c(C)c(CN4CCC(Nc5ncnc6sc(CC(F)(F)F)cc56)CC4)ccc32)CC1 [Compound 68] | 0.05 to 0.25 µM |
| Cc1c(CN2CCC(Nc3ncnc4sc(CC(F)(F)F)cc34)CC2)ccc2c1cc(C#N)n2C[C@H](C)N1CCN(S(=O)(=O)CCF)CC1 [Compound 69] | 0.05 to 0.25 µM |
| Cc1c(CN2CCC(Nc3ncnc4sc(CC(F)(F)F)cc34)CC2)ccc2c1cc(C#N)n2C[C@H](C)N1CCN(S(=O)(=O)CF)CC1 [Compound 70] | 0.05 to 0.25 µM |
| Cc1c(CN2CCC(Nc3ncnc4sc(CC(F)(F)F)cc34)CC2)ccc2c1cc(C#N)n2C[C@@H](C)N1CCN(S(=O)(=O)CF)CC1 [Compound 71] | > 1 µM |
| COC(=O)N1CCN([C@@H](C)Cn2c(C#N)cc3c(C)c(CN4CCC(Nc5ncnc6sc(CC(F)(F)F)cc56)CC4)ccc32)CC1 [Compound 72] | 0.05 to 0.25 µM |
| Cc1c(CN2CCC(Nc3ncnc4sc(CC(F)(F)F)cc34)CC2)ccc2c1cc(C#N)n2C[C@H](C)N1CCN(S(=O)(=O)NC2CC2)CC1 [Compound 73] | < 0.05 µM |
| [2H]C([2H])(C(C)N1CCN(S(C)(=O)=O)CC1)n1c(C#N)cc2c(C)c(CN3CCC(Nc4ncnc5sc(CC(F)(F)F)cc45)CC3)ccc21 (stereo not drawn) [Compound 74] | 0.05 to 0.25 µM |
| Cc1c(CN2CCC(Nc3ncnc4sc(CC(F)(F)F)cc34)CC2)ccc2c1cc(C#N)n2CC(C)N1CCN(S(C)(=O)=O)C(C(=O)O)C1 (stereo not drawn) [Compound 82] | 0.02 to 1 µM |
| CNC(=O)C1CCN(C(C)Cn2c(C#N)cc3c(C)c(CN4CCC(Nc5ncnc6sc(CC(F)(F)F)cc56)CC4)ccc32)CC1 (stereo not drawn) [Compound 84] | 0.05 to 0.25 µM |
| Cc1c(CN2CCC(Nc3ncnc4sc(CC(F)(F)F)cc34)CC2)ccc2c1cc(C#N)n2C[C@H](C)N1CCN(S(=O)(=O)CCO)CC1 [Compound 85] | < 0.05 µM |
| Cc1c(CN2CCC(Nc3ncnc4sc(CC(F)(F)F)cc34)CC2)ccc2c1cc(C#N)n2CC(C)N1CCN(S(=O)(=O)N(C)C)CC1 (stereo not drawn) [Compound 87] | 0.05 to 0.25 µM |
| Cc1c(CN2CCC(Nc3ncnc4sc(CC(F)(F)F)cc34)CC2)ccc2c1cc(C#N)n2CC(C)N1CCN(S(=O)(=O)NCCN)CC1 (stereo not drawn) [Compound 88] | < 0.05 µM |
| Cc1c(CN2CCC(Nc3ncnc4sc(CC(F)(F)F)cc34)CC2)ccc2c1cc(C#N)n2C[C@H](C)N1CCN(S(=O)(=O)N(C)C)CC1 [Compound 89] | < 0.05 µM |
| Cc1c(CN2CCC(Nc3ncnc4sc(CC(F)(F)F)cc34)CC2)ccc2c1cc(C#N)n2CC(C)N1CCC(S(C)(=O)=O)CC1 (stereo not drawn) [Compound 90] | < 0.05 µM |
| Cc1c(CN2CCC(Nc3ncnc4sc(CC(F)(F)F)cc34)CC2)ccc2c1cc(C#N)n2C[C@@H](C)N1C[C@@H](C)N(S(C)(=O)=O)[C@H](C)C1 [Compound 91] | 0.05 to 0.25 µM |
| Cc1c(CN2CCC(Nc3ncnc4sc(CC(F)(F)F)cc34)CC2)ccc2c1cc(C#N)n2C[C@H](C)N1C[C@@H](C)C(S(C)(=O)=O)[C@H](C)C1 [Compound 92] | < 0.05 µM |
| C=CC(=O)Nc1ccc(C(C)Cn2c(C#N)cc3c(C)c(CN4CCC(Nc5ncnc6sc(CC(F)(F)F)cc56)CC4)ccc32)cn1 (stereo not drawn) [Compound 93] | < 0.05 µM |
| Cc1c(CN2CCC(Nc3ncnc4sc(CC(F)(F)F)cc34)CC2)ccc2c1cc(C#N)n2CC(C)N1C2CCC1CN(S(C)(=O)=O)C2 (stereo not drawn) [Compound 94] | 0.05 to 0.25 µM |
| Cc1c(CN2CCC(Nc3ncnc4sc(CC(F)(F)F)cc34)CC2)ccc2c1cc(C#N)n2C[C@H](C)N1CCN(S(=O)(=O)C2CC2)CC1 [Compound 115] | < 0.05 µM |
| Cc1c(CN2CCC(Nc3ncnc4sc(CC(F)(F)F)cc34)CC2)ccc2c1cc(C#N)n2C[C@H](C)N1CCN(S(=O)(=O)CC(C)C)CC1 [Compound 116] | 0.05 to 0.25 µM |
| Cc1c(CN2CCC(Nc3ncnc4sc(CC(F)(F)F)cc34)CC2)ccc2c1cc(C#N)n2C[C@H](C)N1CCN(C(=O)C2CC2)CC1 [Compound 117] | 0.05 to 0.25 µM |
| Cc1c(CN2CCC(Nc3ncnc4sc(CC(F)(F)F)cc34)CC2)ccc2c1cc(C#N)n2C[C@H](C)N1CCN(C(=O)C(F)(F)F)CC1 [Compound 118] | 0.02 to 1 µM |
| CCNS(=O)(=O)N1CCN([C@@H](C)Cn2c(C#N)cc3c(C)c(CN4CCC(Nc5ncnc6sc(CC(F)(F)F)cc56)CC4)ccc32)CC1 [Compound 119] | < 0.05 µM |
| Cc1c(CN2CCC(Nc3ncnc4sc(CC(F)(F)F)cc34)CC2)ccc2c1cc(C#N)n2C[C@H](C)N1CCN(S(=O)(=O)NCC(C)C)CC1 [Compound 120] | 0.05 to 0.25 µM |
